One experiment has as its system trypsin. As to the kind of experiment: trypsin inhibition. It counts as biochemical. The note with it: at concentrations up to 100 µg/mL.
The next experiment concerns chymotrypsin. Briefly: chymotrypsin inhibition. The class given is biochemical. The following applies: at concentrations up to 100 µg/mL.

For Anabaenopeptin 915 [Compound 4], the “trypsin inhibition (qualitative)” value with trypsin is “did not observe trypsin/chymotrypsin inhibition”. Besides, in the experiment with chymotrypsin, the “chymotrypsin inhibition (qualitative)” value was “did not observe trypsin/chymotrypsin inhibition”.

For the substance Anabaenopeptin 908 [Compound 3], in the experiment on trypsin, the “trypsin inhibition (qualitative)” value is reported as “did not observe trypsin/chymotrypsin inhibition”. Besides, in the experiment with chymotrypsin, the “chymotrypsin inhibition (qualitative)” value was “did not observe trypsin/chymotrypsin inhibition”.

For the origin of these results see PMC2673918 (Journal of natural products, 2009).
